Measured values taken from patent US7045532B2 (Millennium Pharmaceuticals, Inc., priority 1999, dated 2006).

Assays:
[1] = Effect on appetite: food consumption in ICR mice; conditions: 3 mg/kg oral
ACE-2 [2] = molecular target: T1, ACE-2 (Homo sapiens, UniProt Q9BYF1); assay: ACE-2 Competitive Substrate Assay (ACS Assay); type: biochemical; conditions: for Ki: Ki class, compounds tested in 5% DMSO, 12 concentrations, read-out: Human ACE-2 Activity
T1 construct: a stop codon inserted after the serine immediately preceding the transmembrane domain; made in house; host or cells: CHO K1 cells (transient transfection, purified from conditioned medium)
Description: An example of such an assay is the ACE-2 Competitive Substrate Assay (ACS Assay).
(§1) ACE-2 enzymatic activity was assayed in microtitre plates by the following procedure. The ACE-2 assay buffer used contained 50 mM MES (Boehringer-Mannheim), 300 mM NaCl (Sigma) and 0.01% Brij-35 (Pierce Chemical Co.) at pH 6.5.
(§2) Reactions were mixed and incubated at 25° C.
(§3) The activity of the test compounds was investigated using the procedure outlined above. The compounds were tested in 5% DMSO. Enzyme activity was measured at 12 compound concentrations.
The following reagents, equipment, stock solutions, and working solutions are used for the ACE-2 assay.
The assay buffer is prepared using 50 mM Mes, 300 mM NaCl, and 0.01% Brij 35, pH 6.5. These components are measured and made up to approximately 800 ml with nanopure water. Using 1M NaOH the pH is adjusted to 6.5 and the solution is then made up to the final volume of 1 L using nanopure water. The buffer is filtered through a 0.45 um disposable filter unit and stored at +4° C. until needed.
This working solution maintains activity for up to 8 hours at room temperature.
The working ACE-2 solution (for using with Mca-APK(Dnp)) is prepared by thawing ACE-2 and diluting it to a concentration of 1 nM using the assay buffer at room temperature.
These solutions are stable up to 8 hours but can not be frozen-thawed for reuse.
Multiple well plates are used for this experiment.
Approximately 360 compounds are tested per plate. Five μl per of each test compound is added in each well. […] Immediately thereafter, 20 μl of Mca-XXX(Dnp) working solution is added per well and mixed for 30 seconds. The reaction is allowed to progress for approximately 60 minutes.
After approximately 60 minutes, 20 μl of 50 mM EDTA is added per well (reaction is linear up to 90 minutes) and mixed for 30 seconds. At this point the fluorescent signal is stable up to 20 hours at room temperature.

ACE-2 [3] = molecular target: ACE-2 (Rattus norvegicus, UniProt Q5EGZ1); assay: ACE-2 Competitive Substrate Assay, rat ACE-2; type: biochemical; conditions: Ki class; compounds tested in 5% DMSO, 12 concentrations
Description: as §1, §2, §3

ACE (Sigma, A2580) = molecular target: T2, ACE (Sigma, A2580) (Sus scrofa, UniProt F1RRW5); assay: ACE enzymatic activity assay; type: biochemical, porcine; conditions: Ki class; compounds tested in 5% DMSO, 12 concentrations
T2 construct: ACE from porcine kidney; purchased Sigma A2580; host or cells: porcine kidney
T2 sequence (F1RRW5 34-1309): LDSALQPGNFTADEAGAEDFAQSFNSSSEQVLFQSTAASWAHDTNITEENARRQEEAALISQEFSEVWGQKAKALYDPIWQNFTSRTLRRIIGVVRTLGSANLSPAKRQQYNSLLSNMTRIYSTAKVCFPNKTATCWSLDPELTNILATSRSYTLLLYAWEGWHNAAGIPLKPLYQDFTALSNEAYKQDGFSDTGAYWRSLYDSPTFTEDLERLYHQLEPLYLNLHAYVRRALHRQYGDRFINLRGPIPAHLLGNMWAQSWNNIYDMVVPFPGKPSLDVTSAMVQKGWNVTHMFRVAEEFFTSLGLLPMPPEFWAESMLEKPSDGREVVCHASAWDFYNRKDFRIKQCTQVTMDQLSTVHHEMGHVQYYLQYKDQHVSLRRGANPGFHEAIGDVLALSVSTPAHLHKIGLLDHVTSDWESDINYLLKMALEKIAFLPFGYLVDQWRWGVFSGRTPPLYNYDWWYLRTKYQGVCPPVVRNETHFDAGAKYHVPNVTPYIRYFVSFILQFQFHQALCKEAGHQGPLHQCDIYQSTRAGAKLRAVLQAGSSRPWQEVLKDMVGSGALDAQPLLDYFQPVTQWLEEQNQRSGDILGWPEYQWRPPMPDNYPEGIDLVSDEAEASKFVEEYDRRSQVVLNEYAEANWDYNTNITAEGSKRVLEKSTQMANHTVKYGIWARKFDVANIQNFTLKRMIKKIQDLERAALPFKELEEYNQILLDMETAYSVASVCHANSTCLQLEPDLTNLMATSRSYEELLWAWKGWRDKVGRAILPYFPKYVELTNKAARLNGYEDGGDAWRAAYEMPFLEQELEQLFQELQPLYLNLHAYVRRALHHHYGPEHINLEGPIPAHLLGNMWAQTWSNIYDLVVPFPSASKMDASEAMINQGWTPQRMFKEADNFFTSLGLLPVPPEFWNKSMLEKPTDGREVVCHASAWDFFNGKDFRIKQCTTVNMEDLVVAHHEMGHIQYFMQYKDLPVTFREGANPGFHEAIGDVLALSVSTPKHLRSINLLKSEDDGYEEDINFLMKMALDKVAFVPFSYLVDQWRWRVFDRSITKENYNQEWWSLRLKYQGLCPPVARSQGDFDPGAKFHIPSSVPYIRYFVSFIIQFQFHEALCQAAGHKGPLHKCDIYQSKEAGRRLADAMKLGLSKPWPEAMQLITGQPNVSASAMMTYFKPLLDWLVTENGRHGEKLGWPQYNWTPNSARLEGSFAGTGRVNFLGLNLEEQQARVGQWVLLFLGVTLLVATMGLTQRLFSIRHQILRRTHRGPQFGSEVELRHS
Procedure, shortened: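 Fluorogenic substrate cleavage by 1 nM ACE, read at 320/405 nm after EDTA stop at ~30 min. Reactions at 25 °C, pH 7.5, in HEPES/NaCl/Brij-35 buffer; compounds tested at 12 concentrations in 5% DMSO.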

Carboxypeptidase A = molecular target: T3, Carboxypeptidase A (Bos taurus, UniProt P00730); assay: Carboxypeptidase A activity assay; type: biochemical; conditions: Ki class; compounds tested in 5% DMSO, 12 concentrations
T3 sequence (P00730 111-419): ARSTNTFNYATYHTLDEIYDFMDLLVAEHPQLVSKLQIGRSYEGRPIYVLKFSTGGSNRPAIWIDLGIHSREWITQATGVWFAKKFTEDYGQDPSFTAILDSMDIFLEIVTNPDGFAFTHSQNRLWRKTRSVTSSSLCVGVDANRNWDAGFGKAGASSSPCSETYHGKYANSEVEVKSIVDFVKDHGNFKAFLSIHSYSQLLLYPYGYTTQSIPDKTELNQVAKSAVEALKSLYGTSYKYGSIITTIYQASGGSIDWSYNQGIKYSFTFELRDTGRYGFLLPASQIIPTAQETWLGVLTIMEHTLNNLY
Procedure, shortened: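 Ki obtained by correcting apparent Ki for substrate, Ki=Kiapp/(1+[S]/Km), from 12-concentration series. Enzyme activity read by absorbance at 328 nm with 5% DMSO present, EDTA stop.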

[4] = tested on: COc1ccc2c(CC(=O)N[C@@H](C)C(=O)N3CCC[C@H]3C(=O)N[C@@H](CCCCNc3ccc([N+](=O)[O-])cc3[N+](=O)[O-])C(=O)O)cc(=O)oc2c1; assay: purified protein, by the assay type; conditions: other: fluorogenic substrate of ACE-2, pH 6.5, 25° C.
Description: as §1, §2

[5] = tested on: COc1ccc2c(CC(=O)N[C@@H](Cc3ccc(O)cc3)C(=O)N[C@H](C(=O)N[C@@H](C)C(=O)N[C@@H](CC(=O)O)C(=O)N[C@@H](C)C(=O)N3CCC[C@H]3C(=O)N[C@@H](CCCCNc3ccc([N+](=O)[O-])cc3[N+](=O)[O-])C(=O)O)C(C)C)cc(=O)oc2c1; assay: purified protein, by the assay type; conditions: other: fluorogenic substrate of ACE-2, pH 6.5, 25° C.
Description: as §1, §2

T1 sequence (Q9BYF1 18-740 limits assumed): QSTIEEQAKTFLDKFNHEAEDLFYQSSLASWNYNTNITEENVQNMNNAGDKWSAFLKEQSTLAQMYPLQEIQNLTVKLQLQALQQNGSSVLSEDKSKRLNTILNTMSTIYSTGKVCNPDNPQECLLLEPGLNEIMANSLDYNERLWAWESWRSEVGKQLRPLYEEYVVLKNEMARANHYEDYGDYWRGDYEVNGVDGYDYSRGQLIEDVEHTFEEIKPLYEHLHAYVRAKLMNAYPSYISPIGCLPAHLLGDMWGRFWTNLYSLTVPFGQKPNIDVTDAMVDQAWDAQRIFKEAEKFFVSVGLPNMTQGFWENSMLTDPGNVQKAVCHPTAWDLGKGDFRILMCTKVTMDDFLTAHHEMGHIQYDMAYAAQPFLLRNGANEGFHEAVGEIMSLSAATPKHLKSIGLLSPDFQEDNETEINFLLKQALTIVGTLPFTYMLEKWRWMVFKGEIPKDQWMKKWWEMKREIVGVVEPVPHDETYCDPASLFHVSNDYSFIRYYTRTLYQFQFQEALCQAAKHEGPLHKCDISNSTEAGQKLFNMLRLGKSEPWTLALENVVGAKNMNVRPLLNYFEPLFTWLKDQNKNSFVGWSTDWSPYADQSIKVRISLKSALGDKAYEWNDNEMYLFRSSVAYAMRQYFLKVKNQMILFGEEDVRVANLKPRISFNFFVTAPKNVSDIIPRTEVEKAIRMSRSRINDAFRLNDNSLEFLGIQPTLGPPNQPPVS
Chain of ACE-2 (Rattus norvegicus, UniProt Q5EGZ1) (Q5EGZ1 18-805): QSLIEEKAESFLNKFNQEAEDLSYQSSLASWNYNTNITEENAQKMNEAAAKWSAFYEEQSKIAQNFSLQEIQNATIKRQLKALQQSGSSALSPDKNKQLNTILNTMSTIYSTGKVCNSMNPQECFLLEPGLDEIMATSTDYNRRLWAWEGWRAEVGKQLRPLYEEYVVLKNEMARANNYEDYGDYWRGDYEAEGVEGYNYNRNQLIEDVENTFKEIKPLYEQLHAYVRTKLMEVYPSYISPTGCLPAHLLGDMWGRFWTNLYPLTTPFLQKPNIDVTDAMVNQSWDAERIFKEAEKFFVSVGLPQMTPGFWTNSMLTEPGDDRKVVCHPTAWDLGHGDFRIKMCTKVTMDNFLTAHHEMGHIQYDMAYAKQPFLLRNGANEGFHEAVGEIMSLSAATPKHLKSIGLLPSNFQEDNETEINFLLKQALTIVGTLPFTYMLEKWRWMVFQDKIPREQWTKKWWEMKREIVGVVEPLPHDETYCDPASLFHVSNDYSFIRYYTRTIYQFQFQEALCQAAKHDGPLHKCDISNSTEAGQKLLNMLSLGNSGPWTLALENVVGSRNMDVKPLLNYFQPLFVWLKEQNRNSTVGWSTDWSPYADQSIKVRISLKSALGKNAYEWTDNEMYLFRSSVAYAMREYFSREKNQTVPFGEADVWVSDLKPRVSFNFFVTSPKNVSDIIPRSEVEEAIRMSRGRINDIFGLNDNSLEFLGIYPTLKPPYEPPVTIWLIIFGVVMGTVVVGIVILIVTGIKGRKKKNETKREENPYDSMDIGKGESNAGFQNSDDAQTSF

Molecule	cumulative food consumption ([1]; one hour)	cumulative food consumption ([1]; six hours)	Ki (ACE-2 [2]) [µM]	relative activity of the diastereomers EZ and FA (ACE-2 [2]; assay not given)	Ki (ACE-2 [3]) [µM]	Ki (ACE (Sigma, A2580)) [µM]	Ki (Carboxypeptidase A) [µM]	Km [4] [µM]	kcat/Km [4] [M⁻¹ s⁻¹]	Km [5] [µM]	kcat/Km [5] [M⁻¹ s⁻¹]
CC(N)Cc1ccccc1 (stereo not shown) [amphetamine, reference compound]	about 0.18±0.05 g	about 3.10±0.03 g	–	–	–	–	–	–	–	–	–
CC(C)CC(N[C@@H](Cc1cncn1Cc1ccccc1)C(=O)O)C(=O)O (single isomer, unassigned) [EZ, 2-[2-(3-Benzyl-3H-imidazol-4-yl)-1-carboxy-ethylamino]-4-methyl-pentanoic acid]	–	–	> 0.5	more active diastereomer	< 0.1	> 50	> 50	–	–	–	–
CC(C)CC(N[C@H](Cc1cncn1C)C(=O)O)C(=O)O (stereo partly shown) [CB, 2-[1-Carboxy-2-(3-methyl-3H-imidazol-4-yl)-ethylamino]-4-methyl-pentanoic acid]	–	–	> 0.5	–	> 0.5	> 50	> 50	–	–	–	–
CC(C)CC(N[C@@H](Cc1cn(Cc2ccccc2)cn1)C(=O)O)C(=O)O (single isomer, unassigned) [DL, 2-[2-(1-Benzyl-1H-imidazol-4-yl)-1-carboxy-ethylamino]-4-methyl-pentanoic acid]	–	–	> 0.5	–	> 0.5	> 50	> 50	–	–	–	–
COC(=O)[C@H](CC(C)C)NCC(=O)c1ccc(-c2ccccc2)cc1 [DH, 2-(2-Biphenyl-4-yl-2-oxo-ethylamino)-4-methyl-pentanoic acid methylester]	–	–	> 0.5	–	> 0.5	> 50	> 50	–	–	–	–
CC(C)C[C@@H](N[C@H](C(=O)O)c1ccccc1)C(=O)O [BS, 2-[(Carboxy-phenyl-methyl)-amino]-4-methyl-pentanoic acid]	–	–	> 0.5	–	> 0.5	> 50	> 50	–	–	–	–
CC(C)CC(N[C@H](Cc1c[nH]cn1)C(=O)O)C(=O)O (single isomer, unassigned) [BI, 2-[1-Carboxy-2-(1H-imidazol-4-yl)-ethylamino]4-methyl-pentanoic acid]	–	–	> 0.5	–	> 0.5	> 50	> 50	–	–	–	–
ACE-2 (Homo sapiens)	–	–	–	–	–	–	–	340	230000	130	42000
O=C(O)[C@H](CC1CC1)N[C@H](CCc1ccccc1)C(=O)O [DE, 2-(1-Carboxy-2-cyclopropyl-ethylamino)-4-phenyl-butync acid]	–	–	> 0.5	–	> 0.5	> 50	> 50	–	–	–	–
CC(C)CC(NC(Cc1ccccn1)C(=O)O)C(=O)O (stereo not shown) [BF, 2-(1-Carboxy-2-pyridin-2-yl-ethylamino)-4-methyl-pentanoic acid]	–	–	> 0.5	–	0.1 to 0.5	> 50	> 50	–	–	–	–
COc1ccc(Cn2cnc(C[C@H](NC(CC(C)C)C(=O)O)C(=O)O)c2)cc1 (stereo partly shown) [EM, 2-[1-Carboxy-2-[1-(4-methoxy-benzyl)-1H-imidazol-4-yl]-ethylamino)4-methyl-pentanoic acid]	–	–	> 0.5	–	> 0.5	> 50	> 50	–	–	–	–
